From PMC6651341, “EDB-FN Targeted Peptide–Drug Conjugates for Use against Prostate Cancer” (International Journal of Molecular Sciences, 2019) come the findings set out here.

Data set [1] concerns RWPE-1 normal human prostate epithelial cells. Kind of data set: MTS cell viability assay, RWPE-1. In kind it is cell-based. Conditions: 5 µM, after 72 h, triplicate. From the text: (§1) Human epithelial prostate cell line (RWPE-1, ATCC No. CRL-11610), human prostate cancer cell line (Human prostate carcinoma DU-145, ATCC No. HTB-81), human adenocarcinoma PC3, ATCC No. CRL-1435), androgen-sensitive human prostate adenocarcinoma cells (LNCaP, ATCC No. CRL-1740), and castration-resistant LNCaP-derived C4-2 (ATCC No. CRL-1595) were purchased from American Type Culture Collection (ATCC), Manassas, VA, USA. All the media, serum, and antibiotics were bought from American Type Culture Collection (ATCC) (Manassas, VA, USA) and Sigma life-science (St. Louis, MO, USA). Keratinocytes SFM (1×) with EGF + BPE was bought from Gibco life technologies (Thermo Fisher Scientific), Gaithersburg, MD, USA. CellTiter 96 was bought from Promega, Madison, WI, USA. […]
(§2) Cell-proliferation assay using MTS reagent was conducted against five cell lines (RWPE-1, PC3, DU-145, LNCaP, and, C4-2). […] The absorbance was obtained at 490 nm using SpectraMax M2 microplate reader to detect the formazan product. […] The percentage of cell viability was calculated by [(OD value of cells treated with the test mixture of compounds) − (OD value of culture medium)] / [(OD value of control cells) − (OD value of culture medium)] × 100%. […] Cell viability was determined by measuring the absorbance at 490 nm using SpectraMax M2 microplate spectrophotometer, as mentioned above.

Data set [2] concerns LNCaP. Description: MTS cell viability assay, LNCaP. In kind it is cell-based, human. The following applies: 5 µM, after 72 h, triplicate.
Excerpt: as §1, §2
Background: Formazan colour is commonly taken as a measure of viable cells.

Data set [3] concerns C4-2. Kind of data set: MTS cell viability assay, C4-2 without TGF-β. In kind it is cell-based, human. Conditions: 5 µM, after 72 h, triplicate. From the text: (§3) Human epithelial prostate cell line (RWPE-1, ATCC No. CRL-11610), human prostate cancer cell line (Human prostate carcinoma DU-145, ATCC No. HTB-81), human adenocarcinoma PC3, ATCC No. CRL-1435), androgen-sensitive human prostate adenocarcinoma cells (LNCaP, ATCC No. CRL-1740), and castration-resistant LNCaP-derived C4-2 (ATCC No. CRL-1595) were purchased from American Type Culture Collection (ATCC), Manassas, VA, USA. All the media, serum, and antibiotics were bought from American Type Culture Collection (ATCC) (Manassas, VA, USA) and Sigma life-science (St. Louis, MO, USA). Keratinocytes SFM (1×) with EGF + BPE was bought from Gibco life technologies (Thermo Fisher Scientific), Gaithersburg, MD, USA. CellTiter 96 was bought from Promega, Madison, WI, USA. Dithiothreitol (DTT) was bought from Thermo Fisher scientific, Carlsbad, CA, USA, and TGF-β was bought from Abcam, Boston, MA, USA.
(§4) Cell-proliferation assay using MTS reagent was conducted against five cell lines (RWPE-1, PC3, DU-145, LNCaP, and, C4-2). Cells were seeded into 96-well plates (5 × 10^3 cells for all the cells) and incubated with 100 µL of complete medium (RPMI-1640 for RWPE-1, DU-145, LNCaP, and C4-2; DMEM for PC3) overnight at 37 °C with 5% CO2. Various concentrations (0, 0.06, 0.6, 6, 60, 600 μM) of the peptide solution (20 μL) were added to cells to yield the final concentrations of peptide (0, 0.01, 0.1, 1, 10, 100 μM). The cells were kept in an incubator (37 °C, 5% CO2) for 24, 48, or 72 h accordingly for different treatment time responses. […] The absorbance was obtained at 490 nm using SpectraMax M2 microplate reader to detect the formazan product. […] The percentage of cell viability was calculated by [(OD value of cells treated with the test mixture of compounds) − (OD value of culture medium)] / [(OD value of control cells) − (OD value of culture medium)] × 100%. […] Cell viability was determined by measuring the absorbance at 490 nm using SpectraMax M2 microplate spectrophotometer, as mentioned above.

Data set [4] relates to PC3. Description: MTS cell viability assay, PC3. In kind it is cell-based, human. Conditions: 5 µM, after 72 h, MTS, triplicate.
Excerpt: as §3, §4

Data set [5] relates to DU-145. Kind of data set: MTS cell viability assay, DU-145. Format: cell-based, human. Conditions: 5 µM, after 72 h, triplicate.
Excerpt: as §1, §2

The test system of data set [6] is EDB-FN. Description: Confocal microscopy of FAM-tagged peptides, binding to EDB-FN. Format: cell-based, human. The following applies: C4-2 cells, 5 μg FAM-peptide, 12 h, confocal 60×. The procedure: Prostate cancer cell line (C4-2) was grown in RPMI medium containing 10% fetal bovine serum and 1% penicillin/streptomycin at the 37 °C in a 5% CO2 incubator. The culture medium was changed every 2–3 days until confluency was reached to 80%. Each cells group was treated with 5 μg of fluorescence-tagged peptides (17 and 18) for 12 h. A set of control groups was also prepared, which was not treated with peptides. Then all cells were fixed with 4% paraformaldehyde for 10 min and washed for 10 min (3 times with PBS). The cells were blocked in 1% FBS/PBS for 10 min and washed for 10 min (3 times with PBS). To target EDB-FN on the cell surface, the cells were incubated with a mouse monoclonal anti-fibronectin antibody (Abcam, Cambridge, MA, USA) (1:1000 dilution using 1% FBS/PBS) overnight at the 4 °C. The cells were washed for 10 min (3 times with PBS), and a Texas red-conjugated anti-mouse secondary antibody was used in 1% FBS/PBS (5:1000 dilution) at the room temperature for 1 h. Then cells were washed for 10 min (3 times with PBS), and at the end, nuclei were stained using DAPI and covered with coverslips. Representative images of cells were captured using a standard confocal microscope (Nikon Eclipse Ti-E, Nikon Instruments Inc., Melville, NY, USA) at 60× magnification, and the images were processed for binary contrast quantification.

Where a SMILES comes first, the peptide text is derived from it. Bridges are numbered along the chain shown (N, C = ends). [ ]: non-standard residue; d: D form. Ahx = NCCCCCC(=O)O

For the compound `CC(C)C[C@H](NC(=O)[C@H](Cc1ccccc1)NC(=O)CNC(=O)[C@@H](N)CS)C(=O)NCC(=O)NCCCCCC(=O)N[C@H]1CCCCNC(=O)CC[C@@H](C(N)=O)NC(=O)[C@H](CC(=O)O)NC(=O)[C@H](C)NC(=O)[C@H](CO)NC(=O)[C@H]([C@@H](C)O)NC(=O)[C@H](CCCNC(=N)N)NC(=O)[C@H](C(C)C)NC(=O)[C@H]([C@@H](C)O)NC1=O` [compound 9] (H-CGFLG[Ahx]KTVRTSADE-NH2; lactam 7-15), the cytotoxicity result in data set [1], in data set [2], in data set [3], in data set [4] and in data set [5] was “did not show any significant cytotoxicity” throughout.

As for “FAM-GFLG-C6-[KTVRTSADE] (sidechain bridge or staple) [compound 18]”, the “increase in the peptide-stained area compared to peptide 17 (binary contrast quantification)” value in data set [6] is recorded as 48%.
